Several values for one entry are separate records, joined by “and”; a condition that tells them apart may be missing. Equal entries are not always repeated. Where two headings read alike, the source gives them in different places.
Legend:
SARS-CoV-2-Nluc [1] = experiment: microbe, parasite or virus in culture; format: cell-based
plasma protein = settings: data from literature; cited from earlier work
[2] = human exposures in the clinics, cited from earlier work; for Cmax: read-out: Exposure (μM): Cmax
SARS-CoV-2-Nluc [3] = experiment: microbe, parasite or virus in culture; format: cell-based; remark: listed apart in the source
icSARS-CoV-2-mNG = format: cell-based, SARS-CoV-2
[4] = Severe acute respiratory syndrome coronavirus 2
[5] = Severe acute respiratory syndrome coronavirus 2, 48 h

In the case of `Cc1c(O)cccc1C(=O)N[C@@H](CSc1ccccc1)[C@H](O)CN1C[C@H]2CCCC[C@H]2C[C@H]1C(=O)NC(C)(C)C` [Nelfinavir], the CC50 (A549-hACE2 cells; human) is reported as 12 ± 1.3 µM, the EC50 (SARS-CoV-2-Nluc [1]) is reported as 0.77 µM and the “SI (selectivity index)” value (SARS-CoV-2-Nluc [1]) is reported as 16 and 15.7. For the same molecule, the EC50 (SARS-CoV-2-Nluc [1]; [4]) was 0.77 to 2.74 µM, the EC50 (SARS-CoV-2-Nluc [1]; [5]) was 0.77 to 2.74 µM and the “Plasma protein binding (%)” value (plasma protein) was >98%. For the same molecule, the “Exposure (μM): Cmin” value [2] was 2.6 µM and the Cmax [2] was 8.3 µM.

For `O=C(Nc1ccc([N+](=O)[O-])cc1Cl)c1cc(Cl)ccc1O` [Niclosamide], the CC50 (A549-hACE2 cells; human) was 1.28 ± 0.23 µM, the “SI (selectivity index)” value (SARS-CoV-2-Nluc [1]) was 1.8 and the EC50 (SARS-CoV-2-Nluc [1]; [5]) was 0.715 µM.

With `CC(C)[C@@]1(C(=O)N[C@H]2CC(=O)O[C@]2(O)CF)CC(c2nccc3ccccc23)=NO1` [Nivocasan] the CC50 (A549-hACE2 cells) was > 50 µM, the “activity against SARS-CoV-2-Nluc (in words)” value (from here on “activity”) (SARS-CoV-2-Nluc [1]) was “inactive” and the EC50 (SARS-CoV-2-Nluc [1]; read-out: EC50) was > 10 µM.

In the case of `CCC(CC)O[C@@H]1C=C(C(=O)O)C[C@H](N)[C@H]1NC(C)=O` [Oseltamivir carboxylate], the CC50 (A549-hACE2 cells; human) is reported as > 50 µM and the EC50 (SARS-CoV-2-Nluc [1]; [5]) is reported as > 10 µM.

In the case of `CCOc1nc(N)nc2c1ncn2[C@@H]1O[C@@H]2COP(=O)(OC(C)C)O[C@H]2[C@@]1(C)F` (stereo partly shown) [PSI-352938], the CC50 (A549-hACE2 cells; human) is reported as > 50 µM and the EC50 (SARS-CoV-2-Nluc [1]; [5]) is reported as > 10 µM.

Molecule `Cc1cn2nc([C@@H]3CCCCN3C(=O)c3cc(Cl)ccc3NS(C)(=O)=O)cc2nc1N1CC[C@H](N)C1` [Presatovir] has an EC50 (SARS-CoV-2-Nluc [1]; [5]) of 2.53 µM.

For `CC1=CC[C@H](C(=O)N(c2cc(C#CC(C)(C)C)sc2C(=O)O)[C@H]2CC[C@](O)(CO[C@H]3CCOC3)CC2)CC1` [Radalbuvir], the CC50 (A549-hACE2 cells; human) was > 50 µM and the EC50 (SARS-CoV-2-Nluc [1]; [5]) was > 10 µM.

In the case of `CCC(CC)COC(=O)[C@H](C)N[P@](=O)(OC[C@H]1O[C@@](C#N)(c2ccc3c(N)ncnn23)[C@H](O)[C@@H]1O)Oc1ccccc1` [Remdesivir], the “SI (selectivity index)” value (SARS-CoV-2-Nluc [1]) is reported as 284, the EC50 (SARS-CoV-2-Nluc [1]; [4]) is reported as 0.115 µM and the EC50 (SARS-CoV-2-Nluc [1]; [5]) is reported as 0.115 µM. It also gave an EC50 (SARS-CoV-2-Nluc [3]; Severe acute respiratory syndrome coronavirus 2, Vero C1008) of 1.28 µM and an EC50 (SARS-CoV-2-Nluc [3]; Severe acute respiratory syndrome coronavirus 2, Vero C1008, 48 h) of 1.28 µM.

In the case of `NC(=O)c1ncn([C@@H]2O[C@H](CO)[C@@H](O)[C@H]2O)n1` [Ribavirin], the CC50 (A549-hACE2 cells; human) is reported as > 50 µM and the EC50 (SARS-CoV-2-Nluc [1]; [5]) is reported as > 10 µM.

In the case of `Cc1cc(/C=C/C#N)cc(C)c1Nc1ccnc(Nc2ccc(C#N)cc2)n1` [Rilpivirine], the CC50 (A549-hACE2 cells; human) is listed as 14.6 ± 1.6 µM, the EC50 (SARS-CoV-2-Nluc [1]; [5]) is listed as 7.8 ± 1.04 µM and the “Plasma protein binding (%)” value (plasma protein) is listed as 99.7%. The “Exposure (μM): Cmin” value [2] was 0.30 µM and the Cmax [2] was 0.83 µM.

In the case of `CC(C)c1nc(CN(C)C(=O)N[C@H](C(=O)N[C@@H](Cc2ccccc2)C[C@H](O)[C@H](Cc2ccccc2)NC(=O)OCc2cncs2)C(C)C)cs1` [Ritonavir], the “activity” value (SARS-CoV-2-Nluc [1]) is reported as “inactive” and the EC50 (SARS-CoV-2-Nluc [1]; [5]) is reported as > 10 µM.

In the case of `Nc1ncnc2c1ncn2[C@@H]1O[C@H](OCP(=O)(O)O)C=C1F` [Rovafovir], the CC50 (A549-hACE2 cells) is given as > 50 µM, the EC50 (SARS-CoV-2-Nluc [1]; read-out: EC50) is given as > 10 µM and the “Plasma protein binding (%)” value (plasma protein) is given as 58%.

In the case of `CCOC(=O)/C=C/[C@H](C[C@@H]1CCNC1=O)NC(=O)[C@@H](CC(=O)[C@@H](NC(=O)c1cc(C)on1)C(C)C)Cc1ccc(F)cc1` [Rupintrivir], the CC50 (A549-hACE2 cells; human) is reported as > 50 µM, the EC50 (SARS-CoV-2-Nluc [1]) is reported as 1.87 ± 0.47 µM and the “SI (selectivity index)” value (SARS-CoV-2-Nluc [1]) is reported as >26.7. The EC50 (SARS-CoV-2-Nluc [1]; [4]) was 0.77 to 2.74 µM.

With `CC(C)(C)NC(=O)[C@@H]1C[C@@H]2CCCC[C@@H]2CN1C[C@@H](O)[C@H](Cc1ccccc1)NC(=O)[C@H](CC(N)=O)NC(=O)c1ccc2ccccc2n1` [Saquinavir] the CC50 (A549-hACE2 cells; human) was 35.1 ± 11.7 µM, the EC50 (SARS-CoV-2-Nluc [1]) was 8.95 ± 0.31 µM and the “SI (selectivity index)” value (SARS-CoV-2-Nluc [1]) was 3.9. The EC50 (SARS-CoV-2-Nluc [1]; [5]) was 8 to 9 µM, the “Plasma protein binding (%)” value (plasma protein) was 98% and the “Exposure (μM): Cmin” value [2] was 0.65 µM. For the same molecule, the Cmax [2] was 3.7 µM.

With `CC(C)OC(=O)[C@H](C)N[P@](=O)(OC[C@H]1O[C@@H](n2ccc(=O)[nH]c2=O)[C@](C)(F)[C@@H]1O)Oc1ccccc1` [Sofosbuvir] the CC50 (A549-hACE2 cells; human) was > 50 µM, the “activity” value (SARS-CoV-2-Nluc [1]) was “inactive” and the EC50 (SARS-CoV-2-Nluc [1]; [5]) was > 10 µM.

In the case of `Fc1ccccc1-c1nc2ccn(Cc3ccc(-c4ccc(C(F)(F)F)cc4C(F)(F)F)nn3)cc-2n1` [Tegobuvir], the CC50 (A549-hACE2 cells; human) is reported as 17.9 ± 3.1 µM and the EC50 (SARS-CoV-2-Nluc [1]; [5]) is reported as > 10 µM.

For `CC(C)OC(=O)[C@H](C)N[P@](=O)(CO[C@H](C)Cn1cnc2c(N)ncnc21)Oc1ccccc1` [Tenofovir alafenamide], the CC50 (A549-hACE2 cells; human) was > 50 µM, the “activity” value (SARS-CoV-2-Nluc [1]) was “inactive” and the EC50 (SARS-CoV-2-Nluc [1]; [5]) was > 10 µM. The “Plasma protein binding (%)” value (plasma protein) was 80% and the Cmax [2] was 0.4 µM.

In the case of `CCC[C@@]1(CCc2ccccc2)CC(O)=C([C@H](CC)c2cccc(NS(=O)(=O)c3ccc(C(F)(F)F)cn3)c2)C(=O)O1` [Tipranavir], the CC50 (A549-hACE2 cells; human) is reported as 28.4 ± 0.5 µM, the EC50 (SARS-CoV-2-Nluc [1]) is reported as 8.65 ± 0.16 µM and the “SI (selectivity index)” value (SARS-CoV-2-Nluc [1]) is reported as 3.3. The EC50 (SARS-CoV-2-Nluc [1]; [5]) was 8 to 9 µM, the “Plasma protein binding (%)” value (plasma protein) was 99.9% and the “Exposure (μM): Cmin” value [2] was 30.8 µM. For the same molecule, the Cmax [2] was 130 µM.

For `CC#CC(=O)N1CC[C@@H](n2c(=O)n(-c3ccc(Oc4ccccc4)cc3)c3c(N)ncnc32)C1` [Tirabrutinib], the CC50 (A549-hACE2 cells; human) was > 50 µM and the EC50 (SARS-CoV-2-Nluc [1]; [5]) was > 10 µM.

For `COC[C@H]1C[C@@H](c2ncc(-c3ccc4c(c3)COc3cc5c(ccc6nc([C@@H]7CC[C@H](C)N7C(=O)[C@@H](NC(=O)OC)C(C)C)[nH]c65)cc3-4)[nH]2)N(C(=O)[C@H](NC(=O)OC)c2ccccc2)C1` [Velpatasvir], the CC50 (A549-hACE2 cells; human) was > 50 µM, the “activity” value (SARS-CoV-2-Nluc [1]) was “inactive” and the EC50 (SARS-CoV-2-Nluc [1]; [5]) was > 10 µM.

In the case of IFN-α, the “EC50 (concentration inhibiting 50% of viral replication)” value (icSARS-CoV-2-mNG) is reported as 101 u/ml, the “mNG expression (visual)” value (icSARS-CoV-2-mNG) is reported as “No mNG expression was visually observed” and the mNG signal (icSARS-CoV-2-mNG) is reported as “dose-dependent reduction of mNG signal”.

For Voxilaprevir, the CC50 (A549-hACE2 cells) was 16 ± 1.2 µM and the EC50 (SARS-CoV-2-Nluc [1]; read-out: EC50) was > 10 µM.

Reference: patent publication US20230416692A1 (BOARD OF REGENTS, THE UNIVERSITY OF TEXAS SYSTEM, priority 2020, published 2023)
